Counter-ions that a name gives are not always drawn.
system: HCV RNA replication (replicon cell lines Huh-7, 5.2 and ET); assay: Cell-Based Luciferase Reporter HCV RNA Replication Assay; conditions: Hepatitis C virus, Huh-7, 96 h, Huh-7, 5.2 or ET replicon cells, luciferase counts after 4 days incubation; read-out: IC50

For COC1CCC(N(C(=O)C2CCC(C)CC2)c2cc(C3=CCCCC3)sc2C(=O)O)CC1 (stereo not drawn) [Compound 23, 5-Cyclohex-1-enyl-3-[(cis-4-methoxy-cyclohexyl)-(4-trans-methyl-cyclohexanecarbonyl)-amino]-thiophene-2-carboxylic acid], which IC50 is on record?
The IC50 was less than 5 µM.

With CC1CCC(C(=O)N(c2cc(C3=CCCCC3)sc2C(=O)O)C2CCC3(CC2)CN(C)C(=O)N3C)CC1 (stereo not drawn) [Compound 73, 5-cyclohex-1-enyl-3-[cis(1,3-dimethyl-2-oxo-1,3-diaza-spiro[4.5]dec-8-yl)-(trans-4-methyl-cyclohexanecarbonyl)-amino]-thiophene-2-carboxylic acid] as the compound, how does the IC50 read?
Its IC50 is less than 5 µM.

C[C@H]1CC[C@H](C(=O)N(c2cc(C3=CCCCC3)sc2C(=O)O)C2CCC(=O)CC2)CC1 [Compound 8, 5-Cyclohex-1-enyl-3-[(trans-4-methyl-cyclohexanecarbonyl)-(4-oxo-cyclohexyl)-amino]-thiophene-2-carboxylic acid] was tested. Which IC50 did it give?
Its IC50 is less than 5 µM.

How did the IC50 turn out when COc1ccc2c(c1)CC(N(C(=O)C1CCC(C)CC1)c1cc(C3=CCCCC3)sc1C(=O)O)CC2 (stereo not drawn) [Compound 67, RS-5-cyclohex-1-enyl-3-[(7-methoxy-1,2,3,4-tetrahydro-naphthalen-2-yl)-(4-trans-methyl-cyclohexanecarbonyl)-amino]-thiophene-2-carboxylic acid] was run?
Its IC50 is less than 5 µM.

Which IC50 does the source give for CSCO[C@H]1CC[C@H](N(c2cc(C3=CCCCC3)sc2C(=O)O)C(=O)[C@H]2CC[C@H](C)CC2)CC1 [Compound 142, 5-cyclohex-1-enyl-3-[(trans-4-methyl-cyclohexanecarbonyl)-(trans-4-methylsulfanylmethoxy-cyclohexyl)-amino]-thiophene-2-carboxylic acid] here?
The IC50 was less than 5 µM.

Which IC50 does the source give for CC1(C)CCC(c2cc(N(C(=O)[C@H]3CC[C@H](C)CC3)[C@H]3CC[C@@H](n4cncn4)CC3)c(C(=O)O)s2)CC1 [Compound 117, 5-(4,4-dimethyl-cyclohexyl)-3-[(trans-4-methyl-cyclohexanecarbonyl)-(cis-4-[1,2,4]triazol-1-yl-cyclohexyl)-amino]-thiophene-2-carboxylic acid; hydrochloride] here?
Its IC50 is less than 5 µM.

COC1CCC(N(C(=O)C2CCC(C)CC2)c2cc(C3CCCCC3)sc2C(=O)O)CC1 (stereo not drawn) [Compound 112, 5-cyclohexyl-3-[(4-trans-methoxy-cyclohexyl)-(4-trans-methyl-cyclohexanecarbonyl)-amino]-thiophene-2-carboxylic acid] was tested. Which IC50 did it give?
Its IC50 is less than 5 µM.

same assay, conditions: Huh-7, 5.2 or ET replicon cells, luciferase counts after 4 days incubation; read-out: IC50

For COCC1CCC(N(C(=O)C2CCC(C)CC2)c2cc(C3=CCCCC3)sc2C(=O)O)CC1 (stereo not drawn) [Compound 132, 5-cyclohex-1-enyl-3-[(4-trans-methoxymethyl-cyclohexyl)-(4-trans-methyl-cyclohexanecarbonyl)-amino]-thiophene-2-carboxylic acid], which IC50 is on record?
Its IC50 is less than 5 µM.

Source: patent publication US8674118B2, “Compounds and methods for the treatment or prevention of flavivirus infections” (priority 2005, dated 2014)
